Earlier results as cited in PMC6225257 (Molecules : A Journal of Synthetic Chemistry and Natural …, 2018).

Conditions: patients with chronic kidney disease; ref [18]
From the text: Here, we conjugated P88 to a paramagnetic MRI CA comprising a chelator (1,4,7,10-tetraazacyclododecane-1,4,7,10-tetraacetic acid, DOTA) complexed with GdCl3 to solve eventual limitations of the superparamagnetic CAs and pave the way towards future clinical implementation. Gadolinium (Gd)-based CAs (GBCA) are routinely employed in radiology as diagnostic agents.

- effect on renal function: does not affect renal function
Substance: Gd-DOTA
